Reference: ChEMBL document CHEMBL3784938, “Novel heterocyclic ring-fused oleanolic acid derivatives as osteoclast inhibitors for osteoporosis” (Medchemcomm, 2016)

Tests used:
RAW264.7 [1] = test: Antiosteoclast activity in mouse RAW264.7 cells assessed as inhibition of RANKL-induced osteoclast differentiation at 2 uM after 5 days by TRAP assay; assay type: functional; conditions: RAW264.7, 120 h
RAW264.7 [2] = test: Antiosteoclast activity in mouse RAW264.7 cells assessed as inhibition of RANKL-induced osteoclast differentiation at 20 uM after 5 days by TRAP assay; assay type: functional; conditions: RAW264.7, 120 h

Row | Structure (SMILES) | inhibition at 2 µM (RAW264.7 [1]) [%] | inhibition at 20 µM (RAW264.7 [2]) [%]
1 | CC1(C)CC[C@]2(C(=O)NC3CCN(Cc4ccccc4)CC3)CC[C@]3(C)C(=CC[C@@H]4[C@@]5(C)Cc6cnoc6C(C)(C)[C@@H]5CC[C@]43C)[C@@H]2C1 | 17.6 | 99.6
2 | CC1(C)CC[C@]2(C(=O)NCc3ccccc3)CC[C@]3(C)C(=CC[C@@H]4[C@@]5(C)Cc6c[nH]nc6C(C)(C)[C@@H]5CC[C@]43C)[C@@H]2C1 | 67.7 | 100
3 | CC1(C)CC[C@]2(C(=O)NCCCN3CCOCC3)CC[C@]3(C)C(=CC[C@@H]4[C@@]5(C)Cc6cnoc6C(C)(C)[C@@H]5CC[C@]43C)[C@@H]2C1 | 23.2 | 45.9
4 | CC1(C)CC[C@]2(C(=O)NCCCN3CCOCC3)CC[C@]3(C)C(=CC[C@@H]4[C@@]5(C)Cc6cn(S(=O)(=O)c7ccc(F)cc7)nc6C(C)(C)[C@@H]5CC[C@]43C)[C@@H]2C1 | 56.1 | 97.7
5 | CC1(C)CC[C@]2(C(=O)NC3CCN(Cc4ccccc4)CC3)CC[C@]3(C)C(=CC[C@@H]4[C@@]5(C)Cc6cn(S(=O)(=O)c7ccc(Cl)cc7)nc6C(C)(C)[C@@H]5CC[C@]43C)[C@@H]2C1 | 18.2 | 41.3
6 | CC1(C)CC[C@]2(C(=O)NCc3ccccc3)CC[C@]3(C)C(=CC[C@@H]4[C@@]5(C)Cc6cn(S(=O)(=O)c7ccc(Cl)cc7)nc6C(C)(C)[C@@H]5CC[C@]43C)[C@@H]2C1 | 0 | 0
7 | Cn1cnc(S(=O)(=O)n2cc3c(n2)C(C)(C)[C@H]2CC[C@@]4(C)[C@@H](CC=C5[C@H]6CC(C)(C)CC[C@@]6(C(=O)NC6CCN(Cc7ccccc7)CC6)CC[C@@]54C)[C@]2(C)C3)c1 | 80.7 | 100
8 | Cc1noc(C)c1S(=O)(=O)n1cc2c(n1)C(C)(C)[C@@H]1CC[C@]3(C)[C@H](CC=C4[C@@H]5CC(C)(C)CC[C@]5(C(=O)NCCCN5CCOCC5)CC[C@]43C)[C@@]1(C)C2 | 75.2 | 100
9 | CC1(C)CC[C@]2(C(=O)NC3CCN(Cc4ccccc4)CC3)CC[C@]3(C)C(=CC[C@@H]4[C@@]5(C)Cc6cn(S(=O)(=O)c7ccc(OC(F)(F)F)cc7)nc6C(C)(C)[C@@H]5CC[C@]43C)[C@@H]2C1 | 2.2 | 71.9
10 | CC1(C)CC[C@]2(C(=O)NC3CCN(Cc4ccccc4)CC3)CC[C@]3(C)C(=CC[C@@H]4[C@@]5(C)Cc6c[nH]nc6C(C)(C)[C@@H]5CC[C@]43C)[C@@H]2C1 | 88.6 | 100
11 | CC1(C)CC[C@]2(C(=O)NC3CCN(Cc4ccccc4)CC3)CC[C@]3(C)C(=CC[C@@H]4[C@@]5(C)Cc6cn(S(=O)(=O)c7ccc(C(F)(F)F)cc7)nc6C(C)(C)[C@@H]5CC[C@]43C)[C@@H]2C1 | 83.6 | 82.1
12 | CC1(C)CC[C@]2(C(=O)NCCCN3CCOCC3)CC[C@]3(C)C(=CC[C@@H]4[C@@]5(C)Cc6c[nH]nc6C(C)(C)[C@@H]5CC[C@]43C)[C@@H]2C1 | 49.8 | 100
13 | Cc1noc(C)c1S(=O)(=O)n1cc2c(n1)C(C)(C)[C@@H]1CC[C@]3(C)[C@H](CC=C4[C@@H]5CC(C)(C)CC[C@]5(C(=O)NC5CCN(Cc6ccccc6)CC5)CC[C@]43C)[C@@]1(C)C2 | 64 | 69.5
14 | CC1(C)CC[C@]2(C(=O)O)CC[C@]3(C)C(=CC[C@@H]4[C@@]5(C)Cc6cnoc6C(C)(C)[C@@H]5CC[C@]43C)[C@@H]2C1 | 27.4 | 100
15 | CC1(C)CC[C@]2(C(=O)NC3CCN(Cc4ccccc4)CC3)CC[C@]3(C)C(=CC[C@@H]4[C@@]5(C)Cc6cn(S(=O)(=O)c7ccc(Br)cc7)nc6C(C)(C)[C@@H]5CC[C@]43C)[C@@H]2C1 | 20.3 | 19.6
16 | CC1(C)CC[C@]2(C(=O)NCCN3CCCCC3)CC[C@]3(C)C(=CC[C@@H]4[C@@]5(C)Cc6cn(S(=O)(=O)c7ccc(C(C)(C)C)cc7)nc6C(C)(C)[C@@H]5CC[C@]43C)[C@@H]2C1 | 20.8 | 89.8
